These results are taken from US20200146973A1, “Pharmaceutical Composition for Oral Delivery of Hydrophobic Small Molecule Drug and Hydrophilic Small Molecule Drug Concurrently” (National Tsing Hua University, priority 2016, published 2020).

The test system of one data set is RAW 264.7 cells. The data set can be described thus: Uptake of emulsion containing DiO and Rhodamine B by RAW 264.7 cells (CLSM). Format: cell-based. As to conditions: 3 hours of incubation, FIG. 12. As for the experimental part: To understand better the route of drug delivery, RAW 264.7 cells are added the prepared emulsion containing DiO and Rhodamine B and then cultured for 3 hours. The unabsorbed emulsion is washed with PBS, and then the cells are fixed with formalin, stained, and observed with the CLSM. In addition, the rats are oral administrated with the enteric-coated gelatin capsules that contained the pharmaceutical composition of the present disclosure (the dose of DiO and Rhodamine B is 12 mg/kg, respectively). The animals are sacrificed 6 hours after oral administration, the MLNs are retrieved from euthanized rats, and the tissues are fixed in formalin for 4 hours at room temperature. Then the tissue was cut to size and embedded in OCT gel for frozen section and subsequent staining. The sections are finally examined by CLSM.

Data set [1] can be described thus: Pharmacokinetics in rats after I.V. injection or oral administration, plasma drug concentration quantified by HPLC.
Experimental: (§1) The pharmacokinetics of the pharmaceutical composition of the present disclosure is analyzed in this experiment. There are two groups, the rats are oral administered of the pharmaceutical composition of the present disclosure with 12 mg/kg of paclitaxel and 12 mg/kg of gemcitabine as the oral group, and the rats are tail intravenous injected at a dose of 12 mg/kg of paclitaxel and 12 mg/kg of gemcitabine as the I.V. group. After administration, blood of rat is collected from the tail vein at 0.5, 1, 2, 3, 4, 6, 8, 10, 12, 24, 48 hours, and plasma of rat is obtained after centrifugation. After treatment, the drug concentration is quantified by HPLC.
(§2) For quantifying gemcitabine (hereafter GEM), tetrahydrouridine (10 mM, 10 μL) is added, and 2 mL of an organic mixture (15% isopropanol in ethyl acetate) is added into 100 μL of the plasma. After mixing, the supernatant is centrifuged, dried, and then dissolved in the mobile phase to perform HPLC. Mobile phase is 0.1 M ammonium acetate:acetonitrile=98:2. For quantifying paclitaxel (hereafter PTX), 400 μL of acetonitrile is added into 100μL of plasma. After mixing well, the sample is centrifuged to remove the supernatant. Then 100 μL of ZnSO4 (10% w/v aqueous solution) is added. After mixing well, the sample is centrifuged to remove the supernatant. Then 1 mL of ethyl acetate is added. After mixing well, the sample is centrifuged to remove the supernatant, and then dried. Then the sample is dissolved in methanol to perform HPLC. Mobile phase is H2O:acetonitrile=90:10.
For data set [2] the following is noted: Lewis, rat, in vivo.
Experimental: as §1, §2
Another data set can be described thus: in vivo. As to conditions: Lewis, rat, 12 mg/kg.
The nature of data set [3]: Ex vivo IVIS biodistribution of fluorescent model drugs in major organs. As to conditions: FIG. 14. Set-up: species or system rats. The procedure:
Further, ex vivo imaging of the distributions of different drugs in the major organs that are isolated from the test rats was conducted using an in vivo imaging system (IVIS). The rats are oral administrated a dose of 12 mg/kg of DiO and 12 mg/kg of Rhodamine B as an experiment group, and tail intravenous injected the same dose of DiO and Rhodamine B as an I.V. control group. In addition, the rats are intraperitoneally injected cycloheximide 1 hour before oral administration to block lymphatic absorption as a control group. The animals are sacrificed 6 hours after the feeding and 1 hour after the tail intravenous injection. At the time of maximum accumulation, the rats are sacrificed to remove the main organs (heart, lung, liver, spleen, pancreas and kidney) and the distribution of the fluorescent dye is observed by IVIS.

Data set [4] can be described thus: In vivo transport route by immunofluorescence staining (small intestine, MLNs, tumor; CLSM). Set-up: species or system Lewis rats. As to conditions: oral capsule, DiO and Rhodamine B 12 mg/kg each, 6 hours after administration, FIG. 11. The text has this: In addition to the comprehensive in vitro characterization of the pharmaceutical composition of the present disclosure, determination of the biodistribution of these lipid oil drops following in vivo administration is crucial because they act at the site of accumulation. To trace the pharmaceutical composition of the present disclosure in rats, DiO and Rhodamine B are used as fluorescent model drug for hydrophobic small molecule drug and hydrophilic small molecule drug, respectively.
The animal studies involved Lewis rats with masses of approximately 250 g and are performed in compliance with the “Guide for the Care and Use of Laboratory Animals”, which was prepared by the Institute of Laboratory Animal Resources, National Research Council, and published by the National Academy Press in 1996. The Institutional Animal Care and Use Committee of National Tsing Hua University approved all studies. To prepare the enteric-coated gelatin capsules for use in this experiment, hard gelatin capsules (size 9; Torpac Inc., Fairfield, N.J., U.S.A.) are manually filled with a powdered mixture of Rhodamine B (1 mg), DiO (1 mg), capric acid (18 mg), citric acid (6 mg), and sodium bicarbonate (5 mg), as per the manufacturer's instructions. […]

Setting [5] is: Lewis, rat, plasma, iv, 12 mg/kg.
The mark [6] stands for this setting: Lewis, rat, plasma, po, 12 mg/kg.
Setting [7] is: Oral group, 12 mg/kg each, rat plasma.

Each structure is given as a SMILES string. Read-outs that look alike come from different tables or passages of the source.

With `CCCCCCCCCCCCCCCCCCN1/C(=C\C=C\c2oc3ccccc3[n+]2CCCCCCCCCCCCCCCCCC)Oc2ccccc21.[O-][Cl+3]([O-])([O-])[O-]` [DiO], in the data set on RAW 264.7 cells, the “uptake into cells (colocalization of DiO and DAPI fluorescence)” value is listed as “can be uptake into RAW 264.7 cells”.
With `Nc1ccn([C@@H]2O[C@H](CO)[C@@H](O)C2(F)F)c(=O)n1` [GEM, gemcitabine], in data set [1] (setting [5]), the AUC (in general, the area under the concentration-time curve, a measure of exposure) was 41100 ng·h/mL; the Cmax (in general, the peak of the concentration-time curve) was 16700 ± 4380 ng/mL; the MRT (as a rule, the average time that molecules of a dose stay in the body) turned out to be 3.28 h; the clearance is 4 mL/min/kg. Further, in data set [1] (setting [5]), the half-life – broadly, the time needed for the level to fall by half in the phase considered – is 2.36 h. Moreover, in data set [1] (Lewis, rat, plasma, oral, 12 mg/kg), the bioavailability – broadly, dose-corrected exposure relative to a reference, in per cent – turned out to be 56.8%. In data set [1] (setting [6]), the AUC was found to be 23400 ng·h/mL, the Cmax came out at 3620 ± 1380 ng/mL, the MRT came out at 5.61 h and the half-life is 6.13 h. In data set [1] (setting [7]), the CL came out at 7.17 mL/min/kg and the Tmaxz worked out at 4.00 h. The “time at which the concentration reaches the highest peak, post-administration” value in data set [1] (Oral group, FIG. 15B) stood at 4 h. In addition, in data set [2] (iv), the “time post-administration after which the concentration cannot be detected” value worked out at 6 h. The molecule further showed an AUMC in data set [2] (iv, 12 mg/kg) of 135.11 μg h^2/mL. For the same molecule, in data set [2] (po), the “time post-administration within which the concentration still can be detected” value is at most 12 h. In addition, in data set [2] (po, 12 mg/kg), the AUMC is listed as 131.19 μg h^2/mL.
In “in vivo”, `CC(=O)O[C@H]1C(=O)[C@@]2(C)[C@H]([C@H](OC(=O)c3ccccc3)[C@]3(O)C[C@H](OC(=O)[C@H](O)[C@@H](NC(=O)c4ccccc4)c4ccccc4)C(C)=C1C3(C)C)[C@]1(OC(C)=O)CO[C@@H]1C[C@@H]2O` [PTX, paclitaxel] showed a bioavailability of 59.2%. In “in vivo” (iv), this molecule had an AUC of 23600 ng·h/mL, a Cmax of 20000 ± 5010 ng/mL, an MRT of 1.66 h and a clearance of 7 mL/min/kg. In “in vivo” (iv), this molecule had a half-life of 10.2 h. In the data set “in vivo” (po), this molecule gave an AUC of 7250 ng·h/mL, a Cmax of 1010 ± 970 ng/mL, a mean residence time (MRT) of 7.22 h and a half-life of 14.4 h. Besides, the “time post-administration after which the concentration cannot be detected” value in data set [2] (iv) is 6 h. The molecule also displayed an AUMC in data set [2] (iv, 12 mg/kg) of 39.21 μg h^2/mL. In data set [2] (po), the “time at which the concentration reaches the highest peak, post-administration” value amounted to 6 h and the “time post-administration within which the concentration still can be detected” value is at most 12 h. In data set [2] (po, 12 mg/kg), the AUMC is given as 52.32 μg h^2/mL, the CL stood at 23 mL/min/kg and the Tmaxz was found to be 8.00 h.
Turning to `CCN(CC)c1ccc2c(-c3ccccc3C(=O)O)c3ccc(=[N+](CC)CC)cc-3oc2c1.[Cl-]` [Rhodamine B], the “organ accumulation (ex vivo IVIS)” value is “accumulated in liver, pancreas and kidneys” in data set [3] (I.V. control group, tail intravenous injection 12 mg/kg each, 1 hour); “accumulated in liver, pancreas and the lateral surfaces of intestinal tract” in data set [3] (control group, cycloheximide intraperitoneally 1 hour before oral administration, 6 hours); “accumulated in liver, pancreas and the lateral surfaces of intestinal tract” in data set [3] (experiment group, oral 12 mg/kg each, 6 hours). The “location of fluorescent signals (immunofluorescence staining)” value in data set [4] was “located on the lateral surfaces of the villi, Peyer's patches and tumor”.
